ChEMBL document CHEMBL3885861, “Open TG-GATES”

Organism: Rattus norvegicus
Test: Open TG-GATES - Regimen: Daily Repeat
Type: toxicity, organism-based, Sprague-Dawley
Parameters: regimen Daily Repeat, gender Male, age 6 weeks
Conditions: in vivo, po, 100 mg/kg, […], route gavage, dose level High; for KIDNEY_L / KIDNEY_R / KIDNEY_TOTAL: tissue Kidney; for LIVER: tissue Liver; for A/G / ALP / ALT / AST / BUN / CRE / Ca / Cl / DBIL / GLC / IP / K / LDH / Na / PL / RALB / TBIL / TC / TG / TP / gamma-GTP: tissue Plasma

Q: For OCCOCCN1CCN(C(c2ccccc2)c2ccc(Cl)cc2)CC1 (stereo unspecified) [HYDROXYZINE], which Lym (tissue Blood, time 28 day) is on record?
A: 79.6%

Q: And the MCH (tissue Blood, time 28 day)?
A: 18.5 pg

Q: And the MCHC (tissue Blood, time 28 day)?
A: 34.8%

Q: What about the MCV (tissue Blood, time 28 day) of the same compound?
A: 53.1 fL

Q: And the Mono (tissue Blood, time 28 day)?
A: 2.4%

Q: What about the Neu (tissue Blood, time 28 day) of the same compound?
A: 16.8%

Q: What about the PT (tissue Blood, time 28 day) of the same compound?
A: 15.7 s

Q: What about the Plat (tissue Blood, time 28 day) of the same compound?
A: 109.6 x10_4/uL

Q: What about the RBC (tissue Blood, time 28 day) of the same compound?
A: 796.6 x10_4/ul

Q: What about the Ret (tissue Blood, time 28 day) of the same compound?
A: 2.9%

Q: And the WBC (tissue Blood, time 28 day)?
A: 135.7 x10_2/uL

Q: What about the KIDNEY_L (time 7 day) of the same compound?
A: 1.1 g

Q: What about the KIDNEY_R (time 7 day) of the same compound?
A: 1.1 g

Q: What about the KIDNEY_TOTAL (time 7 day) of the same compound?
A: 2.2 g

Q: And the KIDNEY_L (time 14 day)?
A: 1.3 g

Q: What about the KIDNEY_R (time 14 day) of the same compound?
A: 1.4 g

Q: And the KIDNEY_TOTAL (time 14 day)?
A: 2.7 g

Q: What about the KIDNEY_L (time 28 day) of the same compound?
A: 1.6 g

Q: And the KIDNEY_R (time 28 day)?
A: 1.5 g

Q: What about the KIDNEY_TOTAL (time 28 day) of the same compound?
A: 3.2 g

Q: What about the LIVER (time 7 day) of the same compound?
A: 15.2 g

Q: What about the LIVER (time 14 day) of the same compound?
A: 18.1 g

Q: What about the LIVER (time 28 day) of the same compound?
A: 21.7 g

Q: And the A/G (time 7 day)?
A: 0.8

Q: What about the ALP (time 7 day) of the same compound?
A: 2036.8 IU/L

Q: And the ALT (time 7 day)?
A: 34 IU/L

Q: And the AST (time 7 day)?
A: 61.4 IU/L

Q: And the BUN (time 7 day)?
A: 18 mg/dL

Q: And the CRE (time 7 day)?
A: 0.2 mg/dL

Q: And the Ca (time 7 day)?
A: 11 mg/dL

Q: And the Cl (time 7 day)?
A: 104.6 meq/L

Q: What about the DBIL (time 7 day) of the same compound?
A: 0.018 mg/dL

Q: And the GLC (time 7 day)?
A: 186 mg/dL

Q: And the IP (time 7 day)?
A: 7.9 mg/dL

Q: And the K (time 7 day)?
A: 4.4 meq/L

Q: What about the LDH (time 7 day) of the same compound?
A: 62 IU/L

Q: And the Na (time 7 day)?
A: 141.6 meq/L

Q: And the PL (time 7 day)?
A: 138.2 mg/dL

Q: And the RALB (time 7 day)?
A: 2.6 g/dL

Q: What about the TBIL (time 7 day) of the same compound?
A: 0.046 mg/dL

Q: And the TC (time 7 day)?
A: 76.8 mg/dL

Q: And the TG (time 7 day)?
A: 55 mg/dL

Q: What about the TP (time 7 day) of the same compound?
A: 5.8 g/dL

Q: And the gamma-GTP (time 7 day)?
A: 0.8 IU/L

Q: And the A/G (time 14 day)?
A: 0.8

Q: And the ALP (time 14 day)?
A: 2097.8 IU/L

Q: What about the ALT (time 14 day) of the same compound?
A: 39.6 IU/L

Q: And the AST (time 14 day)?
A: 66 IU/L

Q: What about the BUN (time 14 day) of the same compound?
A: 17.2 mg/dL

Q: What about the CRE (time 14 day) of the same compound?
A: 0.2 mg/dL

Q: And the Ca (time 14 day)?
A: 10.7 mg/dL

Q: And the Cl (time 14 day)?
A: 102.8 meq/L

Q: What about the DBIL (time 14 day) of the same compound?
A: 0.018 mg/dL

Q: What about the GLC (time 14 day) of the same compound?
A: 193 mg/dL

Q: What about the IP (time 14 day) of the same compound?
A: 7.6 mg/dL

Q: What about the K (time 14 day) of the same compound?
A: 4 meq/L

Q: And the LDH (time 14 day)?
A: 94.4 IU/L

Q: And the Na (time 14 day)?
A: 141.4 meq/L

Q: What about the PL (time 14 day) of the same compound?
A: 141.4 mg/dL

Q: What about the RALB (time 14 day) of the same compound?
A: 2.7 g/dL

Q: What about the TBIL (time 14 day) of the same compound?
A: 0.044 mg/dL

Q: What about the TC (time 14 day) of the same compound?
A: 75 mg/dL

Q: What about the TG (time 14 day) of the same compound?
A: 62.4 mg/dL

Q: And the TP (time 14 day)?
A: 5.9 g/dL

Q: And the gamma-GTP (time 14 day)?
A: 0.8 IU/L

Q: What about the A/G (time 28 day) of the same compound?
A: 0.8

Q: What about the ALP (time 28 day) of the same compound?
A: 1321.8 IU/L

Q: And the ALT (time 28 day)?
A: 33.2 IU/L

Q: And the AST (time 28 day)?
A: 58.8 IU/L

Q: And the BUN (time 28 day)?
A: 17.8 mg/dL

Q: What about the CRE (time 28 day) of the same compound?
A: 0.2 mg/dL

Q: What about the Ca (time 28 day) of the same compound?
A: 10.9 mg/dL

Q: What about the Cl (time 28 day) of the same compound?
A: 103.6 meq/L

Q: What about the DBIL (time 28 day) of the same compound?
A: 0.012 mg/dL

Q: What about the GLC (time 28 day) of the same compound?
A: 193.8 mg/dL

Q: And the IP (time 28 day)?
A: 7 mg/dL

Q: What about the K (time 28 day) of the same compound?
A: 4.5 meq/L

Q: What about the LDH (time 28 day) of the same compound?
A: 81.8 IU/L

Q: And the Na (time 28 day)?
A: 141.8 meq/L

Q: What about the PL (time 28 day) of the same compound?
A: 117.6 mg/dL

Q: What about the RALB (time 28 day) of the same compound?
A: 2.9 g/dL

Q: What about the TBIL (time 28 day) of the same compound?
A: 0.038 mg/dL

Q: And the TC (time 28 day)?
A: 64 mg/dL

Q: What about the TG (time 28 day) of the same compound?
A: 41.6 mg/dL

Q: And the TP (time 28 day)?
A: 6.4 g/dL

Q: And the gamma-GTP (time 28 day)?
A: 1 IU/L
